Measured values taken from patent publication US6365616B1, “Methimazole derivatives and tautomeric cyclic thiones to treat autoimmune diseases” (Sentron Medical, Inc., priority 1998, dated 2002).

B1: γ-IFN: rat recombinant γ-interferon, 100 U/ml, used to increase MHC class I and class II expression in FRTL-5 cells (protein, UniProt P01581 23-156, looked up)
Interferon gamma: QGTLIESLESLKNYFNSSSMDAMEGKSLLLDIWRNWQKDGNTKILESQIISFYLRLFEVLKDNQAISNNISVIESHLITNFFSNSKAKKDAFMSIAKFEVNNPQIQHKAVNELIRVIHQLSPESSLRKRKRSRC

Tested on: HLA-DRα class II promoter
Assay: Luciferase assay, FRTL-5 cells stably transfected with HLA-DRα class II promoter-luciferase chimeras
Type: cell-based
Conditions: 40 hours; for % inhibition of IFN-increased p(−137)LUC class II promoter activity / inhibition at 10 µM / inhibition at 100 µM / inhibition at 1000 µM / Luciferase activity +γ-IFN: 100 U/ml γ-interferon; for % inhibition of IFN-increased p(−137)LUC class II promoter activity / inhibition at 10 µM / inhibition at 100 µM / inhibition at 1000 µM: 6H medium; for inhibition at 10 µM / inhibition at 100 µM / inhibition at 1000 µM: FRTL-5, read-out: % inhibition of IFN-increased p(−137)LUC class II promoter activity
Text: Similarly, the HLA DRα promoter constructs, p(−176)CAT and p(−137)CAT, inserted into the pCAT-Basic vector were released by restriction enzyme digestion, purified from agarose gel using QIAEX (QIAGEN, Chatsworth, Calif.), and used as templates for the construction by PCR of inserts with a 5′ flanking Mlul restriction site. The PCR products were purified by phenol-chloroform extraction, digested with MluI and XbaI, purified from agarose gels using QIAEX (QIAGEN, Chatsworth, Calif.) and ligated in the MluI-NheI site of the PGL-2 basic vector (PROMEGA, Madison, Wis.) using the DNA ligation kit from TAKARA biomedicals (TAKARA SHUZO Co.). JM1I9 bacterial competent cells (PROMEGA, Madison, Wis.) were transformed with the ligation reaction and plated in agar plates for 12 h at 37° C. The colonies were picked and screened with minipreps using QIAprep spin plasmid kit (QIAGEN, Chatsworth, Calif.) and restriction enzyme digestion. The plasmids were then purified by CsCI gradient centrifugation.
The PD1-PGL-2 basic constructs and the Class II-PGL-2 basic constructs were stably transfected in the FRTL-5 cells using a Lipofectamine (GIBCO, Life Technologies, Inc.) method. Near confluent cells in 6H medium were cotransfected with 20 μg of plasmid DNA and 2 μg of a pcDNA3neo or a pPUR selection vector (CLONTECH, Palo Alto, Calif.). After 24-48 hours, 400 μg/ml of G418 (GIBCO, Life Technologies, Inc.) or 10 μM of puromycin (SIGMA) were added to the medium. After 3 weeks the antibiotic-resistant colonies were cloned by limiting dilution and screened to determine their interferon sensitivity. At least 5 cell lines of each construct were isolated, each of whose activity was increased by adding 100 U/ml γ interferon to the medium of the cells. The following data (Tables 10-13) were obtained with one clone of each of the class I or class II-luciferase chimera, but were representative of at least three other clones of each.
Luciferase activity was measured using the Luciferase assay system (PROMEGA, Madison, Wis.). Briefly, treated or untreated cells from a 100 mm culture dish were washed with PBS, scraped and collected in microfuge tubes. The pellet was dissolved in 100 μl 1× reporter lysis buffer and incubated at room temperature for 15 minutes. Cells were frozen in dry ice plus ethanol and thawed in water at room temperature. After vortexing for 10 sec, tubes were centrifuged at 12,000×g for 5 min. Twenty μl of the supernatant were mixed with 100 μl of Luciferase assay reagent and immediately placed in a luminometer. Light was measured for a period of 10 sec after a 2 sec delay.
Treatment of cells, maintained either in the presence of TSH or its absence, with 100 U/ml interferon, increased class I and class II promoter activity (Table 10). In this experiment FRTL-5 cells were grown to 80% confluency in 6H medium with TSH then treated with 100 U/ml γ-interferon, 5 mM MMI or both together. Luciferase activity was measured after 40 hours as described. Several points are notable. First, interferon increases both class I and class II promoter activity in the stable transfectants. Second, MMI inhibits both interferon-increased class I and interferon-increased class II promoter activity.

Row | Molecule | inhibition at 10 µM (10 μM) | inhibition at 100 µM (100 μM) | inhibition at 1000 µM (1 mM) | also measured
1 | Cn1ccn(C)c1=S [Compound 8, N-Methylmethimazole] | – | – | – | % inhibition of IFN-increased p(−137)LUC class II promoter activity (10 μM): 0%; % inhibition of IFN-increased p(−137)LUC class II promoter activity (100 μM): 43 ± 5%; % inhibition of IFN-increased p(−137)LUC class II promoter activity (1 mM): 84 ± 9%
2 | CSc1nccn1C [Compound 7, S-Methylmethimazole] | 0% | 30 ± 7% | 68 ± 10% | –
3 | Cn1ccnc1S [Compound 1, 1-Methylimidazole-2-thiol] | 0% | 0% | 37 ± 10% | Luciferase activity + 5 mM MMI (−137 HLA-DRα-LUC): 103 ± 6 % Control; Luciferase activity + 5 mM MMI (−167 HLA-DRα-LUC): 99 ± 5 % Control
4 | Cn1c(-c2ccccc2)cnc1S [Compound 10, 5-Phenylmethimazole] | 43 ± 20% | 80 ± 7% | 92 ± 10% | –
5 | Cc1ncc([N+](=O)[O-])n1CCO [Compound 2, 2-Methyl-5-nitro-1-imidazole ethanol] | 0% | 7 ± 6% | 65 ± 9% | –
6 | B1 | – | – | – | Luciferase activity +γ-IFN (−137 HLA-DRα-LUC): 695 ± 42 % Control; Luciferase activity +γ-IFN (−167 HLA-DRα-LUC): 790 ± 45 % Control
